The test is described as follows: modulators of MEP2-GFP levels in yeast, dose response, S. cerevisiae, flow cytometry GFP, MLPCN hits (AID 2742).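 Note: GFP tag reports level of MEP2 protein as a downstream target of TOR signalling.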 The settings on record: S. cerevisiae MEP2-GFP strain, flow cytometry fluorescence, 3 h; at 33 µM (top of the series). On the technique in general: In flow cytometry, cells or beads pass a laser one at a time.

“And” between values parts separate entries of the source, which are not always exact repeats. Identical values can stand only once. The source made the active and inactive calls.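 Rule for the calls: active = fitted half-maximal concentration for changing background-corrected GFP signal at or below a set limit; inactive = the rest.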

As for `O=C(OCC(=O)N1CCN(C(=O)c2ccco2)CC1)c1cc(-c2ccc(F)cc2)nc2ccccc12`, the GFP fluorescence (kMESF), higher = increase was 4.46 kMESF (inactive) and 3.18 kMESF (inactive).
Regarding `CCn1c(=O)c(C(C)=O)c(O)c2ccccc21`, the GFP fluorescence (kMESF), higher = increase was 3.81 kMESF (inactive).
With `Cc1ccc(C(=O)NNC(=S)NC(=O)c2ccco2)cc1`, the GFP fluorescence (kMESF), higher = increase is 4.91 kMESF (inactive).
Turning to `Cc1ccc(-c2nc(N)c3c(-c4ccc(C)cc4)nn(C(C)(C)C)c3n2)cc1`, the GFP fluorescence (kMESF), higher = increase was 1.65 kMESF (inactive).
As for `Cc1cccc(NC(c2ccc(C)s2)c2ccc3ccc(C)nc3c2O)n1` (stereo unspecified), the GFP fluorescence (kMESF), higher = increase is 8.62 kMESF (inactive).
For `O=C1C=C(c2ccc(Cl)cc2)C(=O)N1Nc1ccccc1` the value was 5.31 kMESF (inactive).
For `O=C(Nc1ccc(O)cc1)C1CCCN1S(=O)(=O)c1ccc(F)cc1` (stereo unspecified) the value was 1.62 kMESF (inactive); for `Cc1ccc(NC(=O)c2cc(N3C(=O)C=CC3=O)ccc2N2CCOCC2)cc1Cl`, 1.96 kMESF (inactive).
Regarding `C[C@@]12C(=O)OC(=O)[C@]1(C)C1CCC2O1`, the GFP fluorescence (kMESF), higher = increase was 3.51 kMESF (inactive).
Regarding `Cc1ccc(/C=N/Nc2ncc(Cl)cc2Cl)s1`, the GFP fluorescence (kMESF), higher = increase is 4.77 kMESF (inactive).
On to `COc1cc(/C=C2/C(=O)c3cccc([N+](=O)[O-])c3C2=O)c(Br)cc1O`, for which the GFP fluorescence (kMESF), higher = increase is 3.18 kMESF (inactive).
Regarding `O=C1c2sc3nc4ccccc4n3c2C(=O)N1c1ccccc1Cl`, the GFP fluorescence (kMESF), higher = increase is 3.06 kMESF (inactive).
Regarding `COc1ccccc1OCCCc1c(C)n[nH]c1C`, the GFP fluorescence (kMESF), higher = increase is 3.47 kMESF (inactive).
Turning to `CCN(CC)c1ccc2cc(-c3nc(-c4ccc(OC)cc4)cs3)c(=O)oc2c1`, the GFP fluorescence (kMESF), higher = increase is 0.72 kMESF (inactive).
On to `COc1cc(CNC(=O)CCCCCCC(C)C)ccc1O`, for which the GFP fluorescence (kMESF), higher = increase is 2.32 kMESF (inactive).
Take `Cc1ccccc1OCCOC(=O)c1ccc(S(=O)(=O)N2CCCC2)cc1`: the GFP fluorescence (kMESF), higher = increase was 1.52 kMESF (inactive).
For `Cc1ccc2c(c1)c(/C=C/c1cc[n+](C)cc1)c(C)n2C` the value was 9.93 kMESF (inactive).
Consider `CC1=CC(=O)C(C(C)C)=C/C1=N/OS(=O)(=O)c1ccccc1`, for which the GFP fluorescence (kMESF), higher = increase was 3.47 kMESF (inactive).
`O=C1CCN(S(=O)(=O)c2ccccc2)CCN1CCOCc1ccc(F)cc1`: the GFP fluorescence (kMESF), higher = increase was 1.97 kMESF (inactive).
For `COc1cccc2c(=O)c(C(=O)NCc3cccs3)c[nH]c12`, the GFP fluorescence (kMESF), higher = increase is 1.57 kMESF (inactive).
For the molecule `Cc1cc(C)nc(S/C=C/C(=O)c2ccccc2)n1`, the GFP fluorescence (kMESF), higher = increase was 3.2 kMESF (inactive).
For `COc1cc(/C=C/c2ccc3c(Br)cc(Br)c(O)c3n2)ccc1O`, the GFP fluorescence (kMESF), higher = increase is 9.24 kMESF (inactive).
In the case of `O=C(O)c1cc[c]([Hg][Cl])cc1`, the GFP fluorescence (kMESF), higher = increase is 4.47 kMESF (inactive).
As to `CCc1ccc(OCC(=O)NNC(=S)NC(=O)C2CC2)c(Br)c1`, the GFP fluorescence (kMESF), higher = increase was 5.6 kMESF (inactive).
For the molecule `Cc1ccc(C(c2cc(Cl)c3cccnc3c2O)N2CCN(C)CC2)cc1` (stereo unspecified), the GFP fluorescence (kMESF), higher = increase was 3.22 kMESF (inactive).
As to `COc1ccc(OC)c(S(=O)(=O)ON2C(=O)c3ccccc3C2=O)c1`, the GFP fluorescence (kMESF), higher = increase was -8.29 kMESF (inactive).
For the molecule `COc1ccccc1[C@]1(C)ON(c2ccccc2C(F)(F)F)C1=O`, the GFP fluorescence (kMESF), higher = increase was 5.08 kMESF (inactive).
With `COc1cccc(/C=C2\C(=O)N(c3cccc(C)c3)C(=O)c3ccccc32)c1`, the GFP fluorescence (kMESF), higher = increase was 4.32 kMESF (inactive).
Take `O=c1oc(/C=C/c2ccc([N+](=O)[O-])s2)nc2ccccc12`: the GFP fluorescence (kMESF), higher = increase is 5.31 kMESF (inactive).
For `O=C(COc1ccccc1)N1CCN(c2ncnc3c2cnn3-c2ccccc2)CC1` the value was 1.97 kMESF (inactive).
On to `COc1ccc(/C=C2\C(=O)ON=C2c2ccccc2)cc1`, for which the GFP fluorescence (kMESF), higher = increase was 4.38 kMESF (inactive).
For `O=c1c2cc(Cl)ccc2nc(-c2ccc([N+](=O)[O-])cc2)n1O` the value was 4.58 kMESF (inactive); for `CC(=O)[C@]1(O)Cc2c(O)c3c(c(O)c2[C@@H](O[C@H]2C[C@H](N)[C@H](O)[C@H](C)O2)C1)C(=O)c1ccccc1C3=O`, 4.71 kMESF (inactive); for `Cc1cccc(C(=O)NC(=S)NNC(=O)Cc2ccccc2)c1`, 3.56 kMESF (inactive).
As to `Cc1ccc(C(=O)Sc2cccccc2=O)cc1`, the GFP fluorescence (kMESF), higher = increase was 3.82 kMESF (inactive).
Regarding `COc1ccc(N2C(=O)/C(=C/c3cccs3)C(=O)NC2=S)cc1`, the GFP fluorescence (kMESF), higher = increase was 4.01 kMESF (inactive).
For `CCc1cccc2sc(N3CCN(C(=O)c4ccc([N+](=O)[O-])o4)CC3)nc12`, the GFP fluorescence (kMESF), higher = increase was 0.16 kMESF (inactive).
Turning to `COc1ccc(N2CCN(C(=O)c3ccc(Br)cc3)CC2)c([N+](=O)[O-])c1`, the GFP fluorescence (kMESF), higher = increase was 2.28 kMESF (inactive).
In the case of `CCc1nc2ccccc2c(=O)n1NC(=O)c1c(O)c2ccccc2n(CC)c1=O`, the GFP fluorescence (kMESF), higher = increase is 2.98 kMESF (inactive).
Take `O=C(/C=C/c1cccc(Cl)c1)c1nc2ccccc2[nH]1`: the GFP fluorescence (kMESF), higher = increase was 3.3 kMESF (inactive).
In the case of `Cc1cccc(N2C(=O)C(Cl)=C(Nc3c(C)n(C)n(-c4ccccc4)c3=O)C2=O)c1C`, the GFP fluorescence (kMESF), higher = increase is 3.31 kMESF (inactive).
Turning to `Cc1cc2ccccn2c1C(=O)c1ccc([N+](=O)[O-])o1`, the GFP fluorescence (kMESF), higher = increase is -12.4 kMESF (inactive).
As to `CCN(CC)c1ccc(/C=C2\C(=O)c3ccc(C(=O)O)cc3C2=O)cc1`, the GFP fluorescence (kMESF), higher = increase is 47.5 kMESF (inactive).
For `Cc1cccc(/C=C/C(=O)c2ccc([N+](=O)[O-])o2)c1` the value was 5.78 kMESF (inactive).
Consider `C/C(=N\Nc1ncnc2sc(C)c(C)c12)c1ccccn1`, for which the GFP fluorescence (kMESF), higher = increase is 38.2 kMESF (inactive).
In the case of `CC(C)CC(=O)NC(=S)Nc1nc(-c2ccccc2)cs1`, the GFP fluorescence (kMESF), higher = increase is 2.07 kMESF (inactive).
`Clc1cnc(N/N=C/c2cccs2)c(Cl)c1`: the GFP fluorescence (kMESF), higher = increase was 2.89 kMESF (inactive).
On to `CS(=O)(=O)N1N=C(c2ccccc2)CC1c1ccc2c(c1)OCO2` (stereo unspecified), for which the GFP fluorescence (kMESF), higher = increase is 78.8 kMESF (inactive).
`COc1cccc(C(=O)Nc2nnc(-c3ccc(Cl)cc3)o2)c1`: the GFP fluorescence (kMESF), higher = increase was 4.71 kMESF (inactive).
For `Cc1ccc2nc(/C(C#N)=C/c3ccc(O)c(O)c3)[nH]c2c1`, the GFP fluorescence (kMESF), higher = increase is 4.49 kMESF (inactive).
As to `O=C(Nc1nnc(-c2ccc(F)cc2)o1)c1cccc([N+](=O)[O-])c1`, the GFP fluorescence (kMESF), higher = increase is 2.99 kMESF (inactive).
In the case of `Cc1cccc(N=C2NC(=O)/C(=C/C=C/c3ccco3)S2)c1C`, the GFP fluorescence (kMESF), higher = increase was 6.73 kMESF (inactive).
Turning to `O=C(Nc1ccc(Cl)cc1)ON=C1CCCC1`, the GFP fluorescence (kMESF), higher = increase was 4.17 kMESF (inactive).
For the molecule `Cc1ccc(C)c(/C=C/C(=O)c2ccccc(=O)c2O)c1`, the GFP fluorescence (kMESF), higher = increase is -0.95 kMESF (inactive).
Turning to `Oc1ccc(COCc2ccccc2)c2cccnc12`, the GFP fluorescence (kMESF), higher = increase was 6.91 kMESF (inactive).
For `COc1ccccc1-c1nc2s/c(=C\c3cccs3)c(=O)n2n1` the value was 5.28 kMESF (inactive).
For `CC(OC(=O)c1ccco1)C(=O)Nc1nc(-c2ccccc2)cs1` (stereo unspecified) the value was 2.67 kMESF (inactive); for `CC(=O)N(C(C)=O)c1ncnc2c1c(-c1ccc(Cl)cc1)nn2C(C)(C)C`, 1.85 kMESF (inactive); for `Cn1ncc2c(O/N=C(\N)c3ccc(C(C)(C)C)cc3)ncnc21`, 3.78 kMESF (inactive).
Take `O=C(Nc1ccccc1)ON=C1CCCC1`: the GFP fluorescence (kMESF), higher = increase is 2.76 kMESF (inactive).
For `CC(C)(C)c1ccc(NC(=O)COC(=O)c2ccc([N+](=O)[O-])s2)cc1` the value was 2.3 kMESF (inactive); for `CC(=O)Nc1ncnc2c1c(-c1ccc(Cl)cc1)nn2C(C)(C)C`, 2.08 kMESF (inactive).
For `COc1cc(/C=C2\CC/C(=C\c3cc(OC)c(O)c(OC)c3)C2=O)cc(OC)c1O`, the GFP fluorescence (kMESF), higher = increase was 3.25 kMESF (inactive).
Consider `CCn1c(/C=C/c2ccc([N+](=O)[O-])o2)nc2ccccc2c1=O`, for which the GFP fluorescence (kMESF), higher = increase was 2.26 kMESF (inactive).
Regarding `O=C(Oc1oc(-c2ccco2)nc1C=Nc1ccccc1)c1ccco1`, the GFP fluorescence (kMESF), higher = increase was 4.57 kMESF (inactive).
`CC(C)(C)n1nc(-c2ccc(F)cc2)c2c(N)ncnc21`: the GFP fluorescence (kMESF), higher = increase was 4.89 kMESF (inactive).
As for `Cc1ccc(NC(=O)c2ccc(Cl)c(N3C(=O)C=CC3=O)c2)cc1`, the GFP fluorescence (kMESF), higher = increase is 5.91 kMESF (inactive).
For `CN1CCN(C(c2ccc(C(F)(F)F)cc2)c2ccc3cccnc3c2O)CC1` (stereo unspecified), the GFP fluorescence (kMESF), higher = increase was 4.86 kMESF (inactive).
For `COc1ccc([C@@]2(C(C)C)ON(c3ccccc3C(F)(F)F)C2=O)cc1` the value was 3.06 kMESF (inactive).
As to `CC(=O)N(C1=C(Cl)C(=O)c2ccccc2C1=O)C1CCCCC1`, the GFP fluorescence (kMESF), higher = increase was -3.41 kMESF (inactive).
For `O=C1C(Cl)=C(Nc2ccccc2O)C(=O)N1CCc1ccccc1`, the GFP fluorescence (kMESF), higher = increase is 3.11 kMESF (inactive).
For `C=CCN1C(=O)/C(=C/c2cccs2)C(=O)NC1=S` the value was 3.81 kMESF (inactive).
Turning to `O=[N+]([O-])c1c(Nc2ccccn2)cc(Cl)c2nonc12`, the GFP fluorescence (kMESF), higher = increase was 21.3 kMESF (inactive).
Take `O=C(O)c1ccc2c(c1)C(=O)/C(=C/c1ccccc1)C2=O`: the GFP fluorescence (kMESF), higher = increase is 2.47 kMESF (inactive).
`CCCOc1ccc(C(=O)NNC(=S)NC(=O)c2ccccc2)cc1`: the GFP fluorescence (kMESF), higher = increase was 4.61 kMESF (inactive).
Turning to `COC(CNC(=O)c1ccc2c3c(onc13)-c1ccccc1C2=O)OC`, the GFP fluorescence (kMESF), higher = increase was -0.77 kMESF (inactive).

The record behind these values is PubChem BioAssay AID2742 (NMMLSC, 2010).
